Assay [1] has as its system Interferon-α. The assay is described as follows: Induction of Interferon-α using cryopreserved human PBMCs. In kind it is cell-based. Particulars: PBMC, 24 h incubation, normalized to 1 uM resiquimod, read-out: mean pEC50 for induction of Interferon-α (converted). How it is done: Assay for the Induction of Interferon-α Using Cryopreserved Human Peripheral Blood Mononuclear Cells (PBMCs)
Compounds were dissolved in DMSO. Serial 2-fold dilutions with DMSO were prepared and 0.25 μl dispensed into 384-well clear Greiner polypropylene plates.
Blood samples of up to 200 ml were obtained from healthy human donors. Whole blood in 25 ml volumes was overlaid onto 15 ml Ficoll® gradients in Leucosep® tubes, and centrifuged at 1000 g for 20 min. Cells in the band at the plasma/Histopaque® interface were carefully removed and washed twice with PBS (centrifuged at 400 g for 5 min to harvest). The final pellet was resuspended in freezing medium (90% Heat-inactivated serum, 10% DMSO) to a cell concentration of 4×10^7 cells/ml. The resuspended cells were then cryopreserved (frozen) using a rate controlled freezer, and stored at −140° C. for up to 4 months.
Immediately prior to assay, vials of cryopreserved (frozen) PBMCs were thawed rapidly in a water bath at 37° C. A 1:10 dilution of the cells in trypan blue was prepared and counted. The PBMCs were then diluted in growth media [RPMI 1640 containing 10% fetal calf serum (invitrogen), Penicillin+[…] (Gibco cat. #25030-024, 1:50), L-Glutamine 2 mM, and 1000 units/ml recombinant human IFN-gamma (Preprotech catalogue #300-02)] to a density of 1×10^6 cells/ml, and 50 ul/well dispensed to 384-well clear Greiner polypropylene plates containing 0.25 μl DMSO or test compound in 0.25 μl DMSO. […] Plates were incubated for 24 h at 37° C. in 5% CO2.
A multi-isoform immunoassay was used to quantify IFN-α in PBMC supernatants. Rabbit polyclonal antibody against human IFN-α (catalogue number 31101, Stratech Scientific) was diluted 1:10000 in assay buffer (RPMI 1640 containing 10% fetal calf serum, Invitrogen) and 20 μl was added to each well of an MSD® (Meso-Scale® Discovery) single small-spot 384-well GAR (goat anti-rabbit antibody coated) plate.
The plate was incubated for 1 h at room temperature with vigorous shaking. Following three washes with PBS, 20 μl of cell supernatant were added to each well of the plate. The plate was then incubated for 1 h at room temperature with vigorous shaking. A pair of monoclonal antibodies to IFN-α (catalogue numbers 21100 and 21112, Stratech Scientific) were labelled with sulfo-TAG (MSD®), diluted 1:1000 in assay buffer and 20 μl added to each well of the plate. The plate was further incubated for 1 h at room temperature with vigorous shaking. Following three washes with PBS, 30 μl of ×2 T buffer (MSD®) was added to each well and the plate was read on an MSD® Sector 6000 plate reader.
Data were normalized to internal plate controls of 1 uM resiquimod (n=16) and DMSO (n=16). pEC50 values were derived by 4-parameter curve fit with IRLS in ActivityBase, from 11-point, two-fold serial dilution of test compounds.

Assay [2] relates to TNF-α. Nature of the assay: Induction of TNF-α using fresh human PBMCs. Format: cell-based. Particulars: PBMC, 24 hr incubation, relative to 2 μM resiquimod control, read-out: mean pEC50 for induction of TNF-α (converted). The method, then:
(§1) Assay for the Induction of Interferon-α and TNF-α Using Fresh Human Peripheral Blood Mononuclear Cells (PBMCs)
(§2) Compounds were dissolved and serially diluted in DMSO to give 100× the required concentration range using a Biomek® 2000. 1 ul of test compound was transferred into 96-well tissue culture plates using a Biomek® FX. Each compound was assayed in duplicate for each donor. Each plate contained a dilution series of the TLR7/8 agonist resiquimod as standard and Column 11 contained 1 μl of 200 μM resiquimod (giving a 2 μM final concentration, used to define the approximate maximal response to resiquimod).
(§3) Blood samples from two human donors were collected into sodium heparin (10 U/ml). 25 ml volumes of whole blood were overlaid onto 15 mls Histopaque® in LEUCOSEP™ tubes which were centrifuged at 800 g for 20 min and the band at the plasma/histopaque interface carefully removed. The collected cells were centrifuged at 2500 rpm for 10 min and the pellet resuspended in 10 ml of media (RPMI 1640 (Low endotoxin) supplemented with 10% v/v foetal calf serum (FCS, low endotoxin) 100 U/ml penicillin G, 100 μg/ml streptomycin, 10 mM L-glutamine and 1× non-essential amino acids). A 1:20 dilution of the cells was prepared using trypan blue & the cells counted using a haemocytometer. The PBMCs were diluted to give a final concentration of 2×10^6/ml and 100 ul of this cells suspension was added to wells containing 1 μl of diluted test compound.
(§4) The cell preparations were incubated for 24 hr (37° C., 95% air, 5% CO2) after which a sample of the supernatant was removed using the Biomek® FX and assayed for both IFN-α and TNF-α using the MSD® (Mesoscale Discovery) electrochemiluminescence assay platform. The IFN-α assay was carried out similarly to that described above. The TNF-α assay was carried out as per kit instructions (Cat No K111BHB).
(§5) Cytokine released was expressed as a percentage of the 2 μM resiquimod control (column 11). This percentage was plotted against compound concentration and the pEC50 for the response determined by non-linear least squares curve fitting. For the IFN-α responses generally a 4 parameter logistic model was selected. For the TNF responses where a clear maximum response was obtained (i.e. a well defined plateau in the response was observed) then a 4 parameter model was generally used. If the upper asymptote of the curve wasn't well defined then the curve fitting was generally constrained to a maximal response of 100% (i.e. to the response to 2 μM resiquimod) or to the response of the highest concentration tested if this was greater than the resiquimod response. Some curves were bell shaped for one or both cytokines and the cytokine data on the down slope of the bell shaped response (i.e. concentrations above those giving the maximal response) were generally excluded from the fit, usually with the exception of the concentration immediately above the peak response. Curve fitting thus concentrated on the up slope of the dose response curve.

Assay [3] concerns IFN-α. The assay is described as follows: Induction of Interferon-α using fresh human PBMCs. Particulars: PBMC, 24 hr incubation, relative to 2 μM resiquimod control, read-out: mean pEC50 for induction of IFN-α (converted). In kind it is cell-based. The method, then:
as §1, §2, §3, §4, §5

The test system of assay [4] is Interferon-α. The assay is described as follows: Induction of Interferon-α following intranasal dosing in the mouse. Format: in vivo. Particulars: female BALB/c mice, serum 2 hours after dosing, ELISA. How it is done:
Assay for the Induction of Interferon-α Following Intranasal Dosing in the Mouse.
Compounds were dissolved in 0.2% Tween™ 80 in saline and administered intranasally (5 μl in total between the nostrils) to female BALB/c mice (n=6) under general anaesthesia. Animals were euthanased 2 hours after dosing and a terminal blood sample was taken and serum levels of Interferon-α measured using an ELISA assay.

In assay [5] the test system is IL-13. The assay is described as follows: Allergen-driven cytokine assay using fresh human PBMCs from atopic volunteers (IL-13). Particulars: at 0.04 μM, compared to the allergen control; PBMCs from three allergic donors, Timothy Grass antigen. Format: cell-based. How it is done: (§6) Allergen-Driven Cytokine Assay Using Fresh Human Peripheral Blood Mononuclear Cells (PBMCs) from Atopic Volunteers
(§7) An assay based on co-culture of atopic human donor derived peripheral blood mononuclear cells (PBMCs) with allergen and test compounds was developed. After 5-6 days culture, cell supernatants were assayed for a range of cytokines.
(§8) Each compound was assayed in triplicate at all concentrations.
(§9) Defibrinated human blood from volunteers known to be allergic to Timothy grass was centrifuged at 2500 rpm for 15 minutes. The upper layer of serum was collected and heat-inactivated at 56° C. for 30 minutes (HI-autologous serum). The lower layer of cells was resuspended in 50 ml PBS (+Ca+Mg), 25 ml diluted blood were overlaid onto 20 ml Lymphoprep in 50 ml tubes then centrifuged at 2500 rpm for 20 minutes at RT. The band at the serum/Lymphoprep interface was carefully removed. The collected cells were washed with PBS and re-suspended at 4×10^6/ml in growth medium with HI-autologous serum. PBMCs were seeded at 0.4×10^6 cells/well in flat-bottomed 96 well plates in the presence of 10 ug/ml Timothy Grass antigen (Alk Abello) and test compounds at appropriate concentrations in a total volume of 200 ul.
(§10) Plates were incubated at 37° C. in 5% CO2 for up to 6 days. The cell medium from each well was harvested and stored at −20° C. prior to analysis.

In assay [6] the test system is IL-5. Nature of the assay: Allergen-driven cytokine assay using fresh human PBMCs from atopic volunteers (IL-5). In kind it is cell-based. Particulars: at 0.04 μM, compared to the allergen control; PBMCs from three allergic donors, Timothy Grass antigen. The method, then:
as §6, §7, §8, §9, §10

For the molecule `CCCCOc1nc(N)c2[nH]c(=O)n(CCCCCN3CCCCC3)c2n1` [Example 10, 6-Amino-2-(butyloxy)-9-[5-(1-piperidinyl)pentyl]-7,9-dihydro-8H-purin-8-one], the EC50 in assay [1] is < 3160 nM; in assay [2], > 1000 nM; in assay [3] it was ≤ 10 nM.

Consider `CCCCOc1nc(N)c2[nH]c(=O)n(CCCCCN3CCCCCC3)c2n1` [Example 11, 6-Amino-2-(butyloxy)-9-[5-(hexahydro-1H-azepin-1-yl)pentyl]-7,9-dihydro-8H-purin-8-one], for which the EC50 in assay [1] is < 3160 nM; in assay [2] it was > 1000 nM; in assay [3] it was ≤ 10 nM.

For `CCCCOc1nc(N)c2[nH]c(=O)n(CCCCCN3CCCCCCC3)c2n1` [Example 12, 6-Amino-2-(butyloxy)-9-[5-(hexahydro-1(2H)-azocinyl)pentyl]-7,9-dihydro-8H-purin-8-one], the figures for the EC50 in assay [1], in assay [2] and in assay [3] were < 3160 nM, > 1000 nM and ≤ 10 nM, respectively.

On to `CCCCOc1nc(N)c2[nH]c(=O)n(CCCCCCN3CCCC3)c2n1` [Example 13, 6-Amino-2-(butyloxy)-9-[6-(1-pyrrolidinyl)hexyl]-7,9-dihydro-8H-purin-8-one], for which the EC50 is < 3160 nM in assay [1], ≥ 316 nM in assay [2] and ≤ 1 nM in assay [3].

For `CCCCOc1nc(N)c2[nH]c(=O)n(CCCCCCN3CCCCC3)c2n1` [Example 14, 6-Amino-2-(butyloxy)-9-[6-(1-piperidinyl)hexyl]-7,9-dihydro-8H-purin-8-one], the values for the EC50 in assay [1], in assay [2] and in assay [3] were < 3160 nM, > 1000 nM and ≤ 10 nM, respectively.

As for `CCCCOc1nc(N)c2[nH]c(=O)n(CCCCCCN3CCCCCC3)c2n1` [Example 15, 6-Amino-2-(butyloxy)-9-[6-(hexahydro-1H-azepin-1-yl)hexyl]-7,9-dihydro-8H-purin-8-one], the EC50 in assay [1] was < 3160 nM; in assay [2] it was ≥ 316 nM; in assay [3], ≤ 1 nM.

`CCCCNc1nc(N)c2[nH]c(=O)n(CCCCN3CCCCCC3)c2n1` [Example 18, 6-Amino-2-(butylamino)-9-[4-(hexahydro-1H-azepin-1-yl)butyl]-7,9-dihydro-8H-purin-8-one]: the EC50 was < 3160 nM in assay [1], > 1000 nM in assay [2] and ≤ 10 nM in assay [3].

Turning to `CCC[C@H](C)Oc1nc(N)c2[nH]c(=O)n(CCCCN3CCCCC3)c2n1` [Example 20, 6-Amino-2-{[(1S)-1-methylbutyl]oxy}-9-[4-(1-piperidinyl)butyl]-7,9-dihydro-8H-purin-8-one], the EC50 in assay [1] was < 3160 nM; in assay [2], ≥ 316 nM; in assay [3], ≤ 1 nM.

With `CCC[C@H](C)Oc1nc(N)c2[nH]c(=O)n(CCCCN3CCCCCC3)c2n1` [Example 21, 6-Amino-9-[4-(hexahydro-1H-azepin-1-yl)butyl]-2-{[(1S)-1-methylbutyl]oxy}-7,9-dihydro-8H-purin-8-one], the “mean serum levels of Interferon-α” value in assay [4] worked out at 20326 pg/mL. Besides, the figures for the EC50 in assay [1], in assay [2] and in assay [3] were < 3160 nM, ≥ 316 nM and ≤ 1 nM, respectively.

`CCC[C@H](C)Oc1nc(N)c2[nH]c(=O)n(CCCCCN3CCCCC3)c2n1` [Example 22, 6-Amino-2-{[(1S)-1-methylbutyl]oxy}-9-[5-(1-piperidinyl)pentyl]-7,9-dihydro-8H-purin-8-one]: in assay [4], the “mean serum levels of Interferon-α” value stood at 21029 pg/mL. The EC50 was < 3160 nM in assay [1], ≥ 316 nM in assay [2] and ≤ 1 nM in assay [3]. In assay [5], the “reduction of production of Th2 cytokine IL-13” value is ≥ 50%. The “reduction of production of Th2 cytokine IL-5” value in assay [6] was ≥ 50%.

Regarding `CCC[C@H](C)Oc1nc(N)c2[nH]c(=O)n(CCCCCN3CCCCCC3)c2n1` [Example 23, 6-Amino-9-[5-(hexahydro-1H-azepin-1-yl)pentyl]-2-{[(1S)-1-methylbutyl]oxy}-7,9-dihydro-8H-purin-8-one], the EC50 in assay [1] was < 3160 nM; in assay [2] it was ≥ 316 nM; in assay [3], ≤ 1 nM.

The values above are taken from US10117873B2, “6-amino-purin-8-one compounds” (GlaxoSmithKline LLC, priority 2008, dated 2018).
